Counter-ions that a name gives are not always drawn.
COc1cc(C2=CCCCC2)c(Cl)cc1C(=O)N1Cc2ccc(C(=O)N(C)Cc3cccnc3)n2Cc2ccccc21 (as salt: tartaric acid salt) (hydrate or solvate) [Example 2, 10-(5-Chloro-4-cyclohex-1-en-1-yl-2-methoxybenzoyl)-N-methyl-N-(pyridin-3-ylmethyl)-10,11-dihydro-5H-pyrrolo[2,1-c][1,4]benzodiazepine-3-carboxamide L-(+)-tartaric acid salt hemihydrate]
melting point: 138 to 177 °C

— patent publication US20030055046A1, “Novel pyrido cyclohexenyl phenyl carboxamides tocolytic oxytocin receptor antagonists” (Wyeth, priority 2001, published 2003)
